The test system of experiment [1] is healthy control (HC) BMMNC samples. The experiment in a line: Viability (Annexin V/7AAD) assay, healthy control samples. The experiment is classed as cell-based, human. How it is done: Cryopreserved mononuclear cells (MNC from BM or leukapheresis samples) were thawed in a water bath at 37° C. and cell suspension transferred to a 50 mL tube. 20 mL of IMDM media (Sigma, 13390) supplemented with 20% FBS (JRH Biosciences), 50 U/mL DNase I (Sigma), 100 IU/mL penicillin (Sigma), 100 μg/mL streptomycin (Sigma) and 2 mM L-glutamine (Sigma) was added dropwise to the cells while the tube was being vortexed slowly (or mixed by hand). The cells were centrifuged at 400 g for 5 min, supernatant was discarded and the cells were washed once with 20 mL PBS. After the wash, the cells were resuspended in 25 mL IMDM (Sigma, 13390) supplemented with 20% FBS (JRH Biosciences), 100 IU/mL penicillin (Sigma), 100 μg/mL streptomycin (Sigma) and 2 mM L-glutamine (Sigma), and incubated overnight for recovery. The next morning, viability was determined by trypan blue exclusion and samples with viability lower than 85% underwent dead cell removal by density gradient centrifugation as follows: 15 mL of Lymphoprep (AXIS-Shield) was transferred to a 50 mL tube and the cell suspension (25 mL) carefully overlayed (so as not to disturb the interface mixing with the Lymphoprep). The tubes were centrifuged at 800 g for 20 min with acceleration set at 5 (half of the maximum) and no brake. MNC layer (formed in the interface between the media and the Lymphoprep) was transferred with a disposable Pasteur pipet into a 50 mL tube containing 20 mL PBS. […] Viability and cell density were determined by trypan blue exclusion and cells were plated for respective experiments as described in the Results section.
2×10^5 cells (200 μL) were harvested in 5 mL tubes and washed 3 times with PBS. […] Results were analysed with FCS Express 4 Flow Research Edition software (De Novo Software). […]

In experiment [2] the test system is P-JNK^Thr183/Tyr185. The experiment in a line: Western blot for P-JNK in primary AML sample L-AML6. It counts as cell-based, human. To be noted: L-AML6, 48 h. How it is done:
Cells were harvested (4×10^6 for cell lines and 7×10^6 for L-AMLs) and washed 3 times with cold PBS (centrifuged at 4° C.). Lysis buffer was prepared with NP40 Cell Lysis Buffer (ThermoFisher Scientific), cOmplete protease inhibitor (Roche, 046993116001), PhosStop (Roche, 04906837001) and Pefablock (Roche, 11585916001) at the recommended concentrations. After the washes, cells were resuspended in 50 μL of lysis buffer, vortexed and incubated on ice for 30 min. Samples were vortexed every 10 min. After 30 min incubation, samples were centrifuged at 14,000 g at 4° C. for 10 min and supernatants were transferred to tubes. Protein was quantified using the DC Protein Assay kit (BioRad) per manufacturer's protocol. 50 μg of cell lines lysate or 20 μg of L-AML6 lysate were loaded for SDS-PAGE. Protein was transferred from the gels into PVDF membranes using a semi dry transfer apparatus (BioRad). The membranes were blocked for 1 h at room temperature with 5% skim milk in 0.1% TBS-t and then incubated with gentle shaking with primary antibodies overnight at 4° C. […]
Western blot analysis. […] For L-AML6 cells P-JNK^Thr183/Tyr185 and Noxa expression were determined using the specific antibodies that have been validated in the cell line experiments (FIG. 4). […]
A general note: In western blotting, separated proteins are transferred to a membrane and probed.

“Also recorded” adds a separate entry of the source.

On to `COc1cc(C(=O)c2c(C)oc3c(O)c(OC)ccc23)cc(OC)c1OC` [EX 1, 2-Methyl-7-hydroxy-3-(3,4,5-trimethoxybenzoyl)-6-methoxybenzofuran], for which the “viability (live cells, Annexin V/7AAD)” value was “some reduced viability” in experiment [1] (48 h) and “viability remained stable” in experiment [1] (up to 72 h). Also, the P-JNK level result in experiment [2] (500 nM) was “small increase; also recorded: induced”.

With `COc1cc(/C=C\c2ccc(OC)c(OP(=O)(O)O)c2OP(=O)(O)O)cc(OC)c1OC` [OXi4503, reference compound], the “response to treatment (viability)” value in experiment [1] is on record as “did not show a response”. Further, the P-JNK level entry in experiment [2] (indicated doses) is “no apparent change”.
